# Test results: US20100119587A1, “SOLID LIPIDIC […] AS PHARMACEUTICALLY ACCEPTABLE FILLERS OR […] FOR INHALATION” (UNIVERSITE LIBRE DE BRUXELLES, priority 2004, published 2010)
# Assays:
# Format in all cases: physicochemical
# [1] = Solubility in isopropanol; details: organic solvent or mixture
# [2] = Particle size distribution by laser diffraction (Mastersizer 2000, dry sampling)
# Experimental: For each SLP composition, the particle size distribution is measured by laser diffractometry, using a dry sampling system with a suitable SOP (Standard Operating Procedure), (Scirocco®, Mastersizer 2000, Malvern, UK).
# The size distributions are expressed in terms of the mass median diameter d(0.5), i.e. the size in microns which 50% of the sample is smaller and 50% is larger, and in terms of the volume (mass) mean diameter D[4,3].
# [3] = In vitro deposition test, FPD/FPF by Multi-stage Liquid Impinger (tobramycin formulations); details: Table 11, loaded dose = 15 mg, Cyclohaler 100 l/min 2.4 s, n = 3
# Experimental: The Fine Particle Dose has been determined by the method described in the European Pharmacopoeia 4 for the aerodynamic assessment of fine particle, using Apparatus C—Multi-stage Liquid Impinger (MsLI) […] The flow rate was adjusted to a pressure drop of 4 kPa, as typical for inspiration by a patient, resulting in a flow rate of 100 l/min during 2.4 seconds. At least 3 FPD determinations were performed on each formulation and analysis were carried out by a suitable and validated analytical HPLC method. In order to increase the UV absorptivity of the molecule, a derivatization method was applied. The suitable and validated quantification method is described in the USP 25. The HPLC system consisted of a High Performance Liquid Chromatography system (HP 1100 series, Agilent technologies, Belgium), equipped with a quartenary pump, an autosampler and a variable wavelength UV detector set at 360 nm. The separation system was a 39 cm×3.9 mm stainless steel (5 μm particle size) reversed-phase C18 column (Alltima, Alltech, Belgium). Samples of 20 μl volume were injected. The mobile phase was prepared by dissolving 2 g of Tris(hydroxymethyl)aminomethane in 800 ml of water. […] The mass of test substance deposited on each stage was determined from the HPLC analysis of the recovered solutions. […] It is considered to be directly proportional to the amount of drug able to reach the pulmonary tract in vivo, and consequently, the higher the value FPD, the higher the estimated lung deposition.
smiles,measurement,setting,value
"NC[C@H]1O[C@H](O[C@H]2[C@H](O)[C@@H](O[C@H]3O[C@H](CO)[C@@H](O)[C@H](N)[C@H]3O)[C@H](N)C[C@@H]2N)[C@H](N)C[C@@H]1O [Tobra μ, tobramycin]",solubility,[1],50 µg/mL
same,d (0.5),"[2]; Table 10, Example 13, dry powder form, mean ± S.D., n = 3",1.29 ± 0.02 μm
same,"D [4, 3]","[2]; Table 10, Example 13, dry powder form, n = 3",1.54 ± 0.01 μm
same,% <5.0 μm,"[2]; Table 10, Example 13, n = 3",99.3 ± 0.2%
same,FPD,[3],7.2 ± 0.6 mg
same,FPF,[3],48.1 ± 0.4%
same,FPF,[3]; listed as uncoated micronized tobramycin,around 48%
